Assay results: patent US20260022142A1, “MACROCYCLIC IMMUNOMODULATORS” (Bristol-Myers Squibb Company, priority 2022, published 2026)
pIC50: −log10 of the molar value. Bridge positions count the residues as written; N and C are the ends. Square brackets hold non-standard residues; d marks the D form. Peptide text beside a SMILES is read from it. * marks the point of attachment. ξ: configuration not given here. Bip = N[C@@H](Cc1ccc(-c2ccccc2)cc1)C(=O)O; Phe(3-Me) = Cc1cccc(C[C@H](N)C(=O)O)c1; Val(3-OH) = CC(C)(O)[C@H](N)C(=O)O; hArg = N=C(N)NCCCC[C@H](N)C(=O)O; 3Thi = N[C@@H](Cc1ccsc1)C(=O)O; Cha = N[C@@H](CC1CCCCC1)C(=O)O; Cit = NC(=O)NCCC[C@H](N)C(=O)O; Thr(3ξ) = CC(O)[C@H](N)C(=O)O; Tle = CC(C)(C)[C@H](N)C(=O)O; 12Ado = NCCCCCCCCCCCC(=O)O; Carboxymethyl = O=C(O)C*; Orn = NCCC[C@H](N)C(=O)O; Aun = NCCCCCCCCCCC(=O)O; Dab = NCC[C@H](N)C(=O)O; Dap = NC[C@H](N)C(=O)O; Piv = CC(C)(C)C(=O)*

Target: T1, PD-1/PD-L1 interaction (PE-labeled human PD-L1-Ig binding to Jurkat cell line over-expressing human PD-1) (Homo sapiens, UniProt Q15116)
T1 construct: expressed in transfected cells; host or cells: Jurkat
Experiment: Jurkat-PD-1 Cell Binding High-Content Screening Assay (CBA)
Type: cell-based
Details: Jurkat cell line over-expressing human PD-1; PE-labeled PD-L1-Ig 20 nM final; read-out: Jurkat hPD1-PDL1 IC50
In short: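 Binding of fluorescent PD-L1-Ig (20 nM final) to Jurkat-PD-1 cells was measured by automated imaging after 1 h, following a 2 h compound pre-treatment at 37° C.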

T1 sequence (Q15116 25-288): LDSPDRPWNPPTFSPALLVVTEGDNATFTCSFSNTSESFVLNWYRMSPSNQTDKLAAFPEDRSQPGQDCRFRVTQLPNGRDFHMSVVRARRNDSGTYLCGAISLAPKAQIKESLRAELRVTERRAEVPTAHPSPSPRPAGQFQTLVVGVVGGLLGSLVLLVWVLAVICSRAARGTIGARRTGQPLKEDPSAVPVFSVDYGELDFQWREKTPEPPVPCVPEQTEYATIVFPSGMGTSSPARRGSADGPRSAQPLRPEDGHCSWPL

| Structure (SMILES) | pIC50 |
| --- | --- |
| Cc1cccc(C[C@@H]2NC(=O)[C@H](CC(=O)O)NC(=O)[C@H](Cc3ccc(OCC(=O)O)cc3)NC(=O)[C@H](CCCNC(=N)N)NC(=O)CSC[C@@H](C(=O)N[C@@H](CCN)C(=O)NCCCCCCCCCCC(=O)O)NC(=O)[C@H](CCC(N)=O)NC(=O)[C@H](C(C)(C)C)NC(=O)[C@H](CC3CCCCC3)NC(=O)[C@H](CCN)NC(=O)[C@@H](CC(C)C)NC(=O)[C@H](CCCN)NC(=O)[C@H](Cc3ccc(OCC(=O)O)cc3)NC(=O)[C@H](Cc3ccc(-c4ccccc4)cc3)NC(=O)[C@H](Cc3ccc(OCC(=O)O)cc3)NC2=O)c1 [Compound 3532] ({CH2CO}-RY(Carboxymethyl)D[Phe(3-Me)]Y(Carboxymethyl)[Bip]Y(Carboxymethyl)[Orn][dL][Dab][Cha][Tle]QC[Dab][Aun]-OH; thioether N-14) | 8.12 |
| Cc1cccc(C[C@@H]2NC(=O)[C@H](CC(=O)O)NC(=O)[C@H](Cc3ccc(OCC(=O)O)cc3)NC(=O)[C@H](CCCNC(=N)N)NC(=O)CSC[C@@H](C(=O)N[C@@H](CCN)C(=O)NCCCCCCCCCCC(=O)O)NC(=O)[C@H](CCC(N)=O)NC(=O)[C@H](C(C)(C)O)NC(=O)[C@H](CC3CCCCC3)NC(=O)[C@H](CCN)NC(=O)[C@@H](CC(C)C)NC(=O)[C@H](CCCN)NC(=O)[C@H](Cc3ccc(OCC(=O)O)cc3)NC(=O)[C@H](Cc3ccc(-c4ccccc4)cc3)NC(=O)[C@H](Cc3ccc(OCC(=O)O)cc3)NC2=O)c1 [Compound 3533] ({CH2CO}-RY(Carboxymethyl)D[Phe(3-Me)]Y(Carboxymethyl)[Bip]Y(Carboxymethyl)[Orn][dL][Dab][Cha][Val(3-OH)]QC[Dab][Aun]-OH; thioether N-14) | 8.29 |
| Cc1cccc(C[C@@H]2NC(=O)[C@H](CC(=O)O)NC(=O)[C@H](Cc3ccc(OCC(=O)O)cc3)NC(=O)[C@H](CCCNC(=N)N)NC(=O)CSC[C@@H](C(=O)N[C@@H](CCCCN)C(=O)N[C@@H](CO)C(=O)NCCCCCCCCCCCC(=O)O)NC(=O)[C@H](CN)NC(=O)[C@H](C(C)C)NC(=O)[C@H](CC3CCCCC3)NC(=O)[C@H](CCN)NC(=O)[C@@H](CC(C)C)NC(=O)[C@H](CCCN)NC(=O)[C@H](CCCNC(N)=O)NC(=O)[C@H](Cc3ccc(-c4ccccc4)cc3)NC(=O)[C@H](C(C)C)NC2=O)c1 [Compound 3534] ({CH2CO}-RY(Carboxymethyl)D[Phe(3-Me)]V[Bip][Cit][Orn][dL][Dab][Cha]V[Dap]CKS[12Ado]-OH; thioether N-14) | 7.65 |
| Cc1cccc(C[C@@H]2NC(=O)[C@H](CC(=O)O)NC(=O)[C@H](Cc3ccc(OCC(=O)O)cc3)NC(=O)[C@H](CCCNC(=N)N)NC(=O)CSC[C@@H](C(=O)N[C@@H](CCCCN)C(=O)N[C@@H](CO)C(=O)NCCCCCCCCCCCC(=O)O)NC(=O)[C@H](CN)NC(=O)[C@H](C(C)C)NC(=O)[C@H](CC3CCCCC3)NC(=O)[C@H](CCN)NC(=O)[C@@H](CC(C)C)NC(=O)[C@H](CCCN)NC(=O)[C@H](C(C)C)NC(=O)[C@H](Cc3ccc(-c4ccccc4)cc3)NC(=O)[C@H](C(C)C)NC2=O)c1 [Compound 3535] ({CH2CO}-RY(Carboxymethyl)D[Phe(3-Me)]V[Bip]V[Orn][dL][Dab][Cha]V[Dap]CKS[12Ado]-OH; thioether N-14) | 7.87 |
| Cc1cccc(C[C@@H]2NC(=O)[C@H](CC(=O)O)NC(=O)[C@H](Cc3ccc(OCC(=O)O)cc3)NC(=O)[C@H](CCCCNC(=N)N)NC(=O)CSC[C@@H](C(=O)N[C@@H](CCN)C(=O)N[C@@H](CO)C(=O)NCCCCCCCCCCCC(=O)O)NC(=O)[C@H](C(C)O)NC(=O)[C@H](C(C)O)NC(=O)[C@H](CC3CCCCC3)NC(=O)[C@H](CCN)NC(=O)[C@@H](CC(C)C)NC(=O)[C@H](CCCN)NC(=O)[C@H](CCCNC(=N)N)NC(=O)[C@H](Cc3ccc(-c4ccccc4)cc3)NC(=O)[C@H](C(C)C)NC2=O)c1 (stereo partly drawn) [Compound 3537] ({CH2CO}-[hArg]Y(Carboxymethyl)D[Phe(3-Me)]V[Bip]R[Orn][dL][Dab][Cha][Thr(3ξ)][Thr(3ξ)]C[Dab]S[12Ado]-OH; thioether N-14) | 7.52 |
| CC(=O)NCCCC[C@@H]1NC(=O)CSC[C@@H](C(=O)N[C@@H](CCN)C(=O)NCCCCCCCCCCC(=O)O)NC(=O)[C@H](C(C)O)NC(=O)[C@H](C(C)C)NC(=O)[C@H](CC2CCCCC2)NC(=O)[C@H](CCN)NC(=O)[C@@H](CC(C)C)NC(=O)[C@H](CCCN)NC(=O)[C@H](CCCNC(N)=O)NC(=O)[C@H](Cc2ccc(-c3ccccc3)cc2)NC(=O)[C@H](C(C)C)NC(=O)[C@H](Cc2cccc(C)c2)NC(=O)[C@H](CC(=O)O)NC(=O)[C@H](Cc2ccc(OCC(=O)O)cc2)NC1=O (stereo partly drawn) [Compound 3538] ({CH2CO}-K(Ac)Y(Carboxymethyl)D[Phe(3-Me)]V[Bip][Cit][Orn][dL][Dab][Cha]V[Thr(3ξ)]C[Dab][Aun]-OH; thioether N-14) | 7.58 |
| Cc1cccc(C[C@@H]2NC(=O)[C@H](CC(=O)O)NC(=O)[C@H](Cc3ccc(OCC(=O)O)cc3)NC(=O)[C@H](CCCCNC(=O)C(C)(C)C)NC(=O)CSC[C@@H](C(=O)N[C@@H](CCN)C(=O)NCCCCCCCCCCC(=O)O)NC(=O)[C@H](C(C)O)NC(=O)[C@H](C(C)C)NC(=O)[C@H](CC3CCCCC3)NC(=O)[C@H](CCN)NC(=O)[C@@H](CC(C)C)NC(=O)[C@H](CCCN)NC(=O)[C@H](CCCNC(N)=O)NC(=O)[C@H](Cc3ccc(-c4ccccc4)cc3)NC(=O)[C@H](C(C)C)NC2=O)c1 (stereo partly drawn) [Compound 3539] ({CH2CO}-K(Piv)Y(Carboxymethyl)D[Phe(3-Me)]V[Bip][Cit][Orn][dL][Dab][Cha]V[Thr(3ξ)]C[Dab][Aun]-OH; thioether N-14) | 7.40 |
| CC(=O)NCCCC[C@@H]1NC(=O)[C@H](Cc2ccc(-c3ccccc3)cc2)NC(=O)[C@H](Cc2ccc(O)cc2)NC(=O)[C@H](Cc2cccc(C)c2)NC(=O)[C@H](CC(=O)O)NC(=O)[C@H](Cc2ccc(OCC(=O)O)cc2)NC(=O)[C@H](CCCNC(=N)N)NC(=O)CSC[C@@H](C(=O)N[C@H](CC(N)=O)C(=O)NCCCCCCCCCCC(=O)O)NC(=O)[C@H](C(C)O)NC(=O)[C@H](C(C)C)NC(=O)[C@H](CC2CCCCC2)NC(=O)[C@H](CCN)NC(=O)[C@@H](CC(C)C)NC(=O)[C@H](CCCNC(N)=O)NC1=O (stereo partly drawn) [Compound 3541] ({CH2CO}-RY(Carboxymethyl)D[Phe(3-Me)]Y[Bip]K(Ac)[Cit][dL][Dab][Cha]V[Thr(3ξ)]C[dN][Aun]-OH; thioether N-14) | 8.00 |
| Cc1cccc(C[C@@H]2NC(=O)[C@H](CC(=O)O)NC(=O)[C@H](Cc3ccc(OCC(=O)O)cc3)NC(=O)[C@H](CCCNC(=N)N)NC(=O)CSC[C@@H](C(=O)N[C@H](CC(N)=O)C(=O)NCCCCCCCCCCC(=O)O)NC(=O)[C@H](C(C)O)NC(=O)[C@H](C(C)C)NC(=O)[C@H](CC3CCCCC3)NC(=O)[C@H](CCN)NC(=O)[C@@H](CC(C)C)NC(=O)[C@H](CCCNC(=N)N)NC(=O)[C@H](CCCCNC(=O)C(C)(C)C)NC(=O)[C@H](Cc3ccc(-c4ccccc4)cc3)NC(=O)[C@H](Cc3ccc(O)cc3)NC2=O)c1 (stereo partly drawn) [Compound 3542] ({CH2CO}-RY(Carboxymethyl)D[Phe(3-Me)]Y[Bip]K(Piv)R[dL][Dab][Cha]V[Thr(3ξ)]C[dN][Aun]-OH; thioether N-14) | 7.42 |
| CC(=O)NCCCC[C@@H]1NC(=O)[C@H](Cc2ccc(-c3ccccc3)cc2)NC(=O)[C@H](Cc2ccc(O)cc2)NC(=O)[C@H](Cc2cccc(C)c2)NC(=O)[C@H](CC(=O)O)NC(=O)[C@H](Cc2ccc(OCC(=O)O)cc2)NC(=O)[C@H](CCCNC(=N)N)NC(=O)CSC[C@@H](C(=O)N[C@H](CC(N)=O)C(=O)NCCCCCCCCCCC(=O)O)NC(=O)[C@H](C(C)O)NC(=O)[C@H](C(C)C)NC(=O)[C@H](CC2CCCCC2)NC(=O)[C@H](CCN)NC(=O)[C@@H](CC(C)C)NC(=O)[C@H](CCC(N)=O)NC1=O (stereo partly drawn) [Compound 3543] ({CH2CO}-RY(Carboxymethyl)D[Phe(3-Me)]Y[Bip]K(Ac)Q[dL][Dab][Cha]V[Thr(3ξ)]C[dN][Aun]-OH; thioether N-14) | 7.88 |
| Cc1cccc(C[C@@H]2NC(=O)[C@H](CC(=O)O)NC(=O)[C@H](Cc3ccc(OCC(=O)O)cc3)NC(=O)[C@H](CCCNC(=N)N)NC(=O)CSC[C@@H](C(=O)N[C@@H](CCN)C(=O)NCCCCCCCCCCC(=O)O)NC(=O)[C@H](Cc3ccsc3)NC(=O)[C@H](C(C)C)NC(=O)[C@H](CC3CCCCC3)NC(=O)[C@H](CCN)NC(=O)[C@@H](CC(C)C)NC(=O)[C@H](CCCN)NC(=O)[C@H](Cc3ccc(OCC(=O)O)cc3)NC(=O)[C@H](Cc3ccc(-c4ccccc4)cc3)NC(=O)[C@H](Cc3ccc(OCC(=O)O)cc3)NC2=O)c1 [Compound 3545] ({CH2CO}-RY(Carboxymethyl)D[Phe(3-Me)]Y(Carboxymethyl)[Bip]Y(Carboxymethyl)[Orn][dL][Dab][Cha]V[3Thi]C[Dab][Aun]-OH; thioether N-14) | 6.81 |
| Cc1cccc(C[C@@H]2NC(=O)[C@H](CC(=O)O)NC(=O)[C@H](Cc3ccc(OCC(=O)O)cc3)NC(=O)[C@H](CCCCNC(=N)N)NC(=O)CSC[C@@H](C(=O)N[C@@H](CCCCN)C(=O)N[C@@H](CO)C(=O)NCCCCCCCCCCC(=O)O)NC(=O)[C@H](C(C)O)NC(=O)[C@H](C(C)O)NC(=O)[C@H](CC3CCCCC3)NC(=O)[C@H](CCN)NC(=O)[C@@H](CC(C)C)NC(=O)[C@H](CCCN)NC(=O)[C@H](CCCNC(=N)N)NC(=O)[C@H](Cc3ccc(-c4ccccc4)cc3)NC(=O)[C@H](C(C)C)NC2=O)c1 (stereo partly drawn) [Compound 3547] ({CH2CO}-[hArg]Y(Carboxymethyl)D[Phe(3-Me)]V[Bip]R[Orn][dL][Dab][Cha][Thr(3ξ)][Thr(3ξ)]CKS[Aun]-OH; thioether N-14) | 7.13 |
| CC(=O)NCCCC[C@@H]1NC(=O)[C@H](Cc2ccc(-c3ccccc3)cc2)NC(=O)[C@H](C(C)C)NC(=O)[C@H](Cc2cccc(C)c2)NC(=O)[C@H](CC(=O)O)NC(=O)[C@H](Cc2ccc(OCC(=O)O)cc2)NC(=O)[C@H](CCCNC(=N)N)NC(=O)CSC[C@@H](C(=O)N[C@H](CC(N)=O)C(=O)NCCCCCCCCCCC(=O)O)NC(=O)[C@H](C(C)O)NC(=O)[C@H](C(C)C)NC(=O)[C@H](CC2CCCCC2)NC(=O)[C@H](CCN)NC(=O)[C@@H](CC(C)C)NC(=O)[C@H](CCCN)NC1=O (stereo partly drawn) [Compound 3548] ({CH2CO}-RY(Carboxymethyl)D[Phe(3-Me)]V[Bip]K(Ac)[Orn][dL][Dab][Cha]V[Thr(3ξ)]C[dN][Aun]-OH; thioether N-14) | 7.95 |
